# Assay results taken from the supplement of paper PMC10307832.
# Experiments:
# Assay in all cases: relative viability (nuclei count vs DMSO), 5 days (fraction); higher = more cells survive
# [1] = system: NCI-H1915; conditions: first compound 0.5 µM
# In short: (§1)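 Cells from lung cancer lines were seeded into 1536-well plates and, one day later, dosed by pin tool. Treatments were either a single drug or a fixed dose of an anchor drug with five library-drug doses (not always all listed) in √10 steps. After 5 days, nuclei were stained in a one-step fixation (final 0.05% Triton X-100, 1% formaldehyde, 1 ug/ml Hoechst) and counted on 4× images, and relative viability is the treated-to-vehicle nuclei ratio, as the median of duplicate plates.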
# [2] = system: NCI-H1944
# In short: as §1
# [3] = system: NCI-H2023
# In short: as §1
# [4] = system: NCI-H2087
# In short: as §1
# [5] = system: NCI-H441
# In short: as §1
# [6] = system: NCI-H460
# In short: as §1
# [7] = system: NCI-H520
# In short: as §1
# [8] = system: NCI-H596
# In short: as §1
# [9] = system: NCI-H650
# In short: as §1
# [10] = system: NCI-H661
# In short: as §1
# [11] = system: NCI-H727
# In short: as §1
# [12] = system: PC-3 [JPC-3]
# In short: as §1
compound,measurement,setting,value
Nc1ccn([C@@H]2O[C@H](CO)[C@@H](O)[C@@H]2O)c(=O)n1 [Cytarabine] + C[C@@H](Oc1cc(-c2cnn(C3CCNCC3)c2)cnc1N)c1c(Cl)ccc(F)c1Cl [Crizotinib] (partner 1 µM),relative viability,[1],0.333
same,relative viability,[2]; first compound 0.005 µM,0.9
same,relative viability,[2]; first compound 0.01581 µM,0.466
same,relative viability,[2]; first compound 0.05 µM,0.367
same,relative viability,[2]; first compound 0.1581 µM,0.2
same,relative viability,[2]; first compound 0.5 µM,0.176
same,relative viability,[3]; first compound 0.005 µM,0.366
same,relative viability,[3]; first compound 0.01581 µM,0.368
same,relative viability,[3]; first compound 0.05 µM,0.113
same,relative viability,[3]; first compound 0.1581 µM,0.101
same,relative viability,[3]; first compound 0.5 µM,0.0749
same,relative viability,[4]; first compound 0.005 µM,0.702
same,relative viability,[4]; first compound 0.01581 µM,0.886
same,relative viability,[4]; first compound 0.05 µM,0.69
same,relative viability,[4]; first compound 0.1581 µM,0.731
same,relative viability,[4]; first compound 0.5 µM,0.537
same,relative viability,[5]; first compound 0.005 µM,0.776
same,relative viability,[5]; first compound 0.01581 µM,0.824
same,relative viability,[5]; first compound 0.05 µM,0.598
same,relative viability,[5]; first compound 0.1581 µM,0.199
same,relative viability,[5]; first compound 0.5 µM,0.165
same,relative viability,[6]; first compound 0.005 µM,0.77
same,relative viability,[6]; first compound 0.01581 µM,0.851
same,relative viability,[6]; first compound 0.05 µM,0.144
same,relative viability,[6]; first compound 0.1581 µM,0.0229
same,relative viability,[6]; first compound 0.5 µM,0.0238
same,relative viability,[7]; first compound 0.005 µM,0.56
same,relative viability,[7]; first compound 0.01581 µM,0.758
same,relative viability,[7]; first compound 0.05 µM,0.831
same,relative viability,[7]; first compound 0.1581 µM,0.56
same,relative viability,[7]; first compound 0.5 µM,0.469
same,relative viability,[8]; first compound 0.005 µM,0.889
same,relative viability,[8]; first compound 0.01581 µM,0.961
same,relative viability,[8]; first compound 0.05 µM,0.786
same,relative viability,[8]; first compound 0.1581 µM,0.614
same,relative viability,[8]; first compound 0.5 µM,0.743
same,relative viability,[9]; first compound 0.005 µM,0.664
same,relative viability,[9]; first compound 0.01581 µM,0.519
same,relative viability,[9]; first compound 0.05 µM,0.353
same,relative viability,[9]; first compound 0.1581 µM,0.259
same,relative viability,[9]; first compound 0.5 µM,0.177
same,relative viability,[10]; first compound 0.005 µM,0.963
same,relative viability,[10]; first compound 0.01581 µM,1.15
same,relative viability,[10]; first compound 0.1581 µM,0.975
same,relative viability,[10]; first compound 0.5 µM,0.632
same,relative viability,[11]; first compound 0.005 µM,0.724
same,relative viability,[11]; first compound 0.01581 µM,0.579
same,relative viability,[11]; first compound 0.05 µM,0.636
same,relative viability,[11]; first compound 0.1581 µM,0.359
same,relative viability,[11]; first compound 0.5 µM,0.3
same,relative viability,[12]; first compound 0.005 µM,0.781
same,relative viability,[12]; first compound 0.01581 µM,0.837
same,relative viability,[12]; first compound 0.05 µM,0.78
same,relative viability,[12]; first compound 0.1581 µM,0.712
same,relative viability,[12]; first compound 0.5 µM,0.617
